According to a melting point compilation (Tetko et al.; mined from patent text by program, amines drawn as free bases though some values may be those of a salt):

SMILES | melting point [°C]
Nc1ccc(Cc2n[nH]c(=O)o2)cc1 | 267 to 268
c1csc(-c2ccc3cc(-c4cccs4)ccc3c2)c1 | 256 to 258
CN1c2ccc(C=C(c3ccccc3)c3ccccc3)cc2Sc2cc(C=C(c3ccccc3)c3ccccc3)ccc21 | 233 to 241
CCOC(N)=C(C#N)C(N)=S | 170 to 171
COc1cc(Br)c2nc(-c3ccc(OC)c(F)c3)cc(O)c2c1 | 200 to 201
COc1ccc(-c2csc(NC(=O)COc3ccc(Cl)cc3Cl)n2)cc1 | 135 to 139
CNC(=O)C=C1CSc2c(C(=O)OC(C)C)c(C)cn21 | 173 to 175
COc1cc(CO)c(CO)cc1OCCCl | 93 to 94
CCOC(=O)C(C#N)=Cc1cc(O)c(O)c([N+](=O)[O-])c1 | 205 to 210
O=C(Nc1cccc(-c2ccnc3c(C(=O)c4cccs4)cnn23)c1)c1ccc(Cl)cc1Cl | 132 to 134
Cc1cccc2c1NC(=O)C2(c1ccc(O)cc1)c1ccc(O)cc1 | 272 to 274
CC1(C(=O)C(=Cc2ccc(Cl)cc2Cl)n2cncn2)COCOC1 | 133 to 135
COCCC1(c2ccc(O)cc2)N=CC=N1 | 173 to 176
COc1ccc(N2CCN(c3c(C)c(C)c4c(c3C)C(OCc3ccc(C(=O)O)cc3)C(C)(C)O4)CC2)cc1 (stereo not given) | 162 to 163
CC(=O)NC[C@H]1CN(c2ccc(N3CCC(n4cc(C(C)=O)nn4)CC3)c(F)c2)C(=O)O1 | 220 to 222
CON=C(C(=O)O)c1csc(=N)n1O | 209 to 210
Cc1c(C(=O)N(C)N2CC=CCC2)nn(-c2ccc(Cl)cc2Cl)c1-c1ccc(Cl)cc1 | 138
Nc1nc(N)c2c(n1)CCC(Cc1cc(Cl)cc(Cl)c1)C2 (stereo not given) | > 200
O=[N+]([O-])c1ccc(S(=O)(=O)C2COCC2Br)cc1 (stereo not given) | 155 to 157

SMILES | melting point [°C]
CCC(C)(C)N1CCNC(S(=O)(=O)Nc2ccc3[nH]c(C(=O)N4CCN(c5ncccc5NC(C)C)CC4)cc3c2)C1 (stereo not given) | 158 to 160
O=C(Nc1ccc(-n2nc(C(F)(F)F)cc2C(F)(F)F)cc1)Nc1ccc(Cl)cc1[N+](=O)[O-] | 225 to 227
C=C1c2ccccc2C=Cn2c1nnc2S(C)=O (stereo not given) | 140 to 142
O=C1Nc2cc([N+](=O)[O-])ccc2OC1(C(F)F)C(F)F | 178 to 181
COc1cc(C(=O)NC2CC(C)(C)N(C)C(C)(C)C2)ccc1-c1cc2cc(Cl)c(Cl)cc2[nH]1 | 260
CNc1ccc(F)cc1C(C)=O | 43 to 45
CCCCCCn1c2ccc(C)cc2c(=O)c2c1cnn2C | 80 to 82
NP(N)(=O)NC(=O)c1cccnc1 | 280 to 283
CCOC(=O)Cc1c(C(=O)OCC)[nH]c(C)c1-c1nc(-c2ccc(OC)cc2)c(-c2ccc(OC)cc2)[nH]1 | 186
Cc1cc(=O)n(-c2ccc(C(F)(F)F)cc2)[nH]1 | 130
O=[N+]([O-])c1ccc(N2CCN(CC(O)(Cn3cncn3)c3ccc(Cl)cc3Cl)CC2)cc1 (stereo not given) | 168
CCN(c1ccc(Cl)cc1C#N)S(=O)(=O)c1ccc(C)cc1 | 138 to 140
FC(F)(F)c1ccc2c(c1)C(c1ccccc1)=NCc1nncn1-2 | 258 to 260
CC(C)(CCCCCCCCCCC(C)(C)CCC(=O)O)CCC(=O)O | 71 to 72
Cc1c(OCC(F)(F)F)ccnc1CSc1nc2ccccc2n1N | 134 to 135
Nc1c(-c2ccc(-c3ccc(F)cc3)cc2)nc2ccc(F)cc2c1C(=O)O | 241 to 243
Nc1ncc(Oc2ccc(Cl)cc2)c(N2CCOCC2)n1 | 138 to 140
N#Cc1nn(-c2c(Cl)cc(C(F)(F)F)cc2Cl)c(N)c1-c1ccoc1C(F)(F)F | 155 to 157
Cc1cccc2c(=O)[nH]c(CC3CN4CCC3CC4)nc12 (stereo not given) | 187 to 188

SMILES | melting point [°C]
C#Cc1cnn2c(C3CC3)cc(-c3ccc(Cl)cc3)nc12 | 181 to 182
CC(=O)N1CCC(C)(C)c2cc(F)cc(CCN3CCN(c4nsc5ccc(F)cc45)CC3)c21 | 128
O=[N+]([O-])c1cnn2c(-c3cccnc3)ccnc12 | 302 to 303
COc1ccc(OCCCCCBr)c(C2Sc3cc(Cl)ccc3N(C)C2=O)c1 (stereo not given) | 105 to 106
Clc1ccc(NC2COc3ccc(Br)cc32)c(Cl)c1 (stereo not given) | 112 to 113
CCc1nc2c(N)nc(C)c(C)c2n1CCOCCNC(=O)N1CCOCC1 | 182 to 184
Cc1cc(C2=NCCO2)cc(C)c1O | 184 to 186
CC(C)n1c(=O)ccc2cnc(S(C)=O)nc21 (stereo not given) | 132 to 133
Cc1c(CN2C(=O)c3ccccc3C2=O)cccc1C(F)(F)C(F)(F)c1ccccc1 | 135 to 137
COC12CC(C)(c3nnc(-c4cncc(Br)c4)o3)CN(C)C1Cc1cn(C)c3cccc2c13 (stereo not given) | 171 to 174
OC1CCN(c2ccncc2)CC1 | 155 to 156
NC1=C(N=O)C(=O)N2CCN=C2N1Cc1ccc(Cl)cc1 | 238 to 241
O=C(Cc1ccncc1)c1ccc(Cl)cc1 | 95.5 to 97.3
CCOC(=O)C1Cc2c([nH]c3cccc(C#N)c23)CN1 (stereo not given) | 248
Cc1nnc(-c2ccc3occ(-c4ccc(C(=O)O)cc4)c3c2)o1 | > 300
Cc1cc(C)c(Cc2nc(C)nc(O)c2C)c(C)c1 | 260 to 262
Cc1cc(Cl)c([N+](=O)[O-])c(Cl)n1 | 69 to 70
COc1ccc(C2(C34CC5CC(CC(C5)C3)C4)N=C(N)N(C)C2=O)cc1OC (stereo not given) | 130

The remaining lines, values ahead:

melting point [°C] | SMILES
99 to 100 | O=S1(=O)CC2(CCCCC2)[C@@H](O)[C@H](c2ccccc2)c2ccccc21 (relative stereo)
99 to 100 | COc1ccc(C2(C#Cc3ccccc3)CCC(=O)CC2)cc1OC1CCCC1
200 to 201 | Cc1c(CC(=O)O)cc2ccc(F)cc2c1Cc1ccc(S(=O)(=O)C(F)(F)F)cc1
132 | CC(=O)C(=[N+]=[N-])C(=O)OCc1ccc([N+](=O)[O-])cc1
219 to 220 | COCC(=O)Nc1nc(NC(=O)COC)c2[nH]cnc2n1
232 to 236 | O=C(O)c1cc(-c2ccccc2)cc2c(-c3ccccc3)c(Br)oc12
184 to 185 | O=[N+]([O-])C1=CN(Cc2ccccc2)C2C([N+](=O)[O-])=CN(Cc3ccccc3)C1N2Cc1ccccc1
135 | CCCc1cc(CC(=O)O)ccc1OCc1ccc2ccccc2n1
195 | COC(=O)C1=C(C)NC(C)=C(C(=O)n2ccnc2)C1c1cccc2nonc12 (stereo not given)
224 to 226 | O=C(O)C1=Cc2cccc(Cl)c2OC1C(F)(F)F (stereo not given)
99 to 102 | COC(C)c1ccc(C(=O)O)cc1 (single isomer, unassigned; (+))
95 to 97 | Nc1cccc(CN2CCC(OC(=O)c3ccccc3)CC2)c1
123 to 125 | CC(=O)N(O)C(C)c1csc2ccccc12 (stereo not given)
241 to 243 | O=c1cc(O)n(-c2cccc(C(F)(F)F)c2)nc1-c1ccnn1-c1ccccc1
100 | Cc1cnn(CN(C(=O)CCl)c2c(C)cccc2C)c1
94 to 95 | CCOC(=O)[C@@H](CC(=O)c1ccc2ccccc2c1)NC(C)=O
260 to 261 | COC=C1C(=O)NC(=O)c2ccccc21
112 to 113 | COC1OCC[C@@H]1NC(=O)[C@H](CC(C)C)NC(=O)OCc1ccccc1 (stereo not given in full)
231 to 233 | CNC(=O)c1cncc(NC(=O)N2CCC3(CCc4ccc(F)cc4O3)CC2)c1
152 to 153 | Cc1cc(C)c(C(O)P(=O)(c2ccccc2)c2ccccc2)c(C)c1 (stereo not given)
118 to 119 | C[C@H](NC(=O)OCc1ccccc1)C(=O)N[C@@H](Cc1ccccc1)C(=O)OCc1ccccc1
129 to 131 | CCOC(=O)c1cc(C#Cc2ccccn2)c2ccccc2n1

melting point [°C] | SMILES
78 to 85 | COC(=O)c1ccc(CNC(=O)C2Cc3ccccc3N2S(=O)(=O)c2ccc(-c3cccc(C(F)(F)F)c3)cc2)c(OC)c1 (stereo not given)
158 to 160 | O=C(/C=C/C=C/c1ccccc1)NCCSCCC(=O)NO
109 to 112 | CNC(=O)N(OC)c1ccccc1COc1ccc2c(c1)OCC2=NOC
64 to 65 | CCOC(=O)CCN=c1sc2ccc(Cl)cc2s1
165 to 167 | O=C(CCc1ccccc1)Nc1ccc(C(=O)O)c(O)c1
220 to 222 | Cc1nc2c(O[C@@H]3c4ccccc4C[C@H]3O)cc(Cl)cn2c1C=O (relative stereo)
204 to 205 | CCOC(=O)N(C)N1CCc2ccccc2C(Oc2ccc(C(F)(F)F)cc2)C1 (stereo not given)
112 | CSc1nc2c(n1-c1ccccc1)CCCC2
62 to 68 | CC(C)CCn1c(=O)c2c(N3CCN(C)CC3)cc(Cl)cc2n(Cc2ccccc2)c1=O
136 to 137 | Cc1oc(-c2ccccc2)nc1CC=Cc1ccc(CCCC2OC(=O)NC2=O)cc1 (stereo not given)
248 to 250 | CC(=O)NC[C@H]1CN(c2ccc(C(=O)c3ccc4cnc(C)cn34)cc2)C(=O)O1
230 to 234 | CC(Cc1c[nH]c2ccccc12)(NC(=O)OC1C2CC3CC(C2)CC1C3)C(=O)NC1CCCCC1C(=O)O (stereo not given)
148 | CCOc1ccc(C=C(CS)C(=O)NCCC(=O)O)cc1
140 to 142 | N#Cc1c(OCCO)cccc1[N+](=O)[O-]
72 to 74 | COC(=O)C=C(Nc1cc(CCO)c([N+](=O)[O-])cc1OCc1ccccc1)C(F)(F)F
50 to 51 | COC(=O)CCCCCCC1=CC(O)CC1=O (stereo not given)
219 | O=C(NCCN1CCOCC1)Nc1nc2ccc(OCc3c(F)cccc3F)cc2s1
109 to 110 | COc1ccc2c(c1OC)CC(c1ccccc1)C=C2C#N (stereo not given)
207 | COC(=O)c1ccc(C(=O)NNC(=O)C=Cc2ccccc2)cc1
> 200 | O=C(NC1CN(C(=O)Nc2ccc(OC(F)(F)F)c(Cl)c2)N=C1c1ccc(Br)cc1)c1ccc(Cl)cc1 (stereo not given)
203 | COc1ccccc1-c1nc2cc(NC(=O)OC(C)(C)C)ccn2n1
184 | Cc1ccc(Cc2cnc(NCCCCNc3ccccn3)[nH]c2=O)cn1
